Where a chain is given by its changes, count along the chain named.

The results in this text go back to patent publication US20090270359A1, “SUBSTITUTED PYRAZOLE DERIVATIVES” (TAKEDA PHARMACEUTICAL COMPANY LIMITED, priority 2007, published 2009).

Assay [1] addresses T1, wild type androgen receptor (AR) (Homo sapiens, UniProt P10275).
T1 sequence (P10275 1-920): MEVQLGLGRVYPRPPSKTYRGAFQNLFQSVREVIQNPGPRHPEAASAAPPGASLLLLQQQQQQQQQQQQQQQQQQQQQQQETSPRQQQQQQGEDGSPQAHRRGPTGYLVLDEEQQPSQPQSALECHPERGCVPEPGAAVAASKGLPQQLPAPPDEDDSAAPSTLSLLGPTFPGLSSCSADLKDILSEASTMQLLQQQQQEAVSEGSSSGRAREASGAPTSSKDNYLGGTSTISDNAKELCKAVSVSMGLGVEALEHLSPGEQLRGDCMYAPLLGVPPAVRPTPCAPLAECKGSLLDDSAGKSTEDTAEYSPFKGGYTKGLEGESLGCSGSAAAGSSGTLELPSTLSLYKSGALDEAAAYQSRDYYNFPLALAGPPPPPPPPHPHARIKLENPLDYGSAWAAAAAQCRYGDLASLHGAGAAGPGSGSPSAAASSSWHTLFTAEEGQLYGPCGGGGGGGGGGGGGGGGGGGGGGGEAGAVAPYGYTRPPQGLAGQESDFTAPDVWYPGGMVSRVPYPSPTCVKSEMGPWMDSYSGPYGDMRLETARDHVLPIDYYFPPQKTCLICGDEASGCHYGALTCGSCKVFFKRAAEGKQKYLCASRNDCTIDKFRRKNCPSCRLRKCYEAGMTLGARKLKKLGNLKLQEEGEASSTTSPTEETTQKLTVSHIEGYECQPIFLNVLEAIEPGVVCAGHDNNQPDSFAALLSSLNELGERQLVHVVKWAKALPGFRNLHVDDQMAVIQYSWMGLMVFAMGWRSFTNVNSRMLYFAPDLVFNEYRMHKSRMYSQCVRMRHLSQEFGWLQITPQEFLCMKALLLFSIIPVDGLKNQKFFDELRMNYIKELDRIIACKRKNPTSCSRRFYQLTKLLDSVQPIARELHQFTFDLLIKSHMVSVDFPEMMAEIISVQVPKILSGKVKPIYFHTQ
Put plainly: AR-binding inhibition test, wild type (radio-labeled Mibolerone displacement). The note with it: compound 1 μM; 3 nM radio-labeled Mibolerone; 4° C., 3 hours; dextran/charcoal method; read-out: Inhibitory rate (%) at 1 μM, wild type. Here is the method: (§1) To a solution of wild type or LNCaP type mutant androgen receptor (AR) was added 3 nM radio-labeled Mibolerone and final concentration 1 μM of the compound. The mixture was incubated at 4° C. for 3 hours, and B (Bound) and F (Free) Mibolerones were separated by the dextran/charcoal method. The label count of B was measured and the inhibition rate of the compound was calculated.

Assay [2] deals with T2, LNCaP type mutant androgen receptor (AR) (Homo sapiens, UniProt P10275, T878A).
T2 sequence (P10275 1-920 T878A): T1 sequence (P10275 1-920) with T878A
Description: AR-binding inhibition test, LNCaP type (radio-labeled Mibolerone displacement). The note with it: compound 1 μM; 3 nM radio-labeled Mibolerone; 4° C., 3 hours; dextran/charcoal method; read-out: Inhibitory rate (%) at 1 μM, LNCaP type. Here is the method:
as §1

The target in another assay is T3, mutant AR (W741C) (Homo sapiens, UniProt P10275, W742C).
T3 construct: expressed in transfected cells; host or cells: Cos-7
T3 sequence (P10275 1-920 W742C): T1 sequence (P10275 1-920) with W742C
Put plainly: AR transcription inhibition test (luciferase reporter in Cos-7 cells). The note with it: compound 1 μM, 0.1 μM DHT, luciferase activity after 24 hr, relative to control (0.1 μM DHT), read-out: Inhibitory rate (%) of mutant AR at 1 μM. Format: cell-based. How it is done:
Cos-7 cells (5,000,000 cells) were inoculated to a flask, and incubated in a culture medium (DMEM+10% Dextran Charcoal (DCC)−Fetal Bovine Serum (FBS) and 2 mM glutamine) for 24 hours. Then, a vector DNA harboring mutant AR (W741C) and a vector DNA containing a luciferase gene bound at the downstream of an androgen responsive promoter were cotransfected by a liposome method. After 4 hr, the medium was changed and, after culture for 3 hr, DHT (dihydrotestosterone) at the final concentration of 0.1 μM and the compound at the final concentration of 1 μM were added. After further culture for 24 hr, the luciferase activity was measured, and the AR transcription inhibitory activity of the compound was examined.

Assay [3] relates to Human prostate cancer cells LNCaP-FGC. Put plainly: Prostate specific antigen (PSA) production inhibition test in prostate cancer cells. The note with it: Homo sapiens, 72 h; compound 1 μM; testosterone 0.1 ng/m; PSA in culture supernatant after 3 days by ELISA; testosterone non-addition group 100%, addition group 0%; read-out: Inhibitory rate (%) at 1 μM (PSA production suppression rate). It counts as cell-based. How it is done: Human prostate cancer cells LNCaP-FGC were plated in a 24 well plate at 40000 cells/1000 μL/well, and testosterone (final concentration 0.1 ng/m) and the compound (1 μM) were added the next day. The concentration of PSA in the culture supernatant after 3 days from the addition was measured by ELISA, and the PSA production suppression rate was calculated with the testosterone non-addition group as 100% and the testosterone addition group as 0%.

As to `Cc1nn(Cc2ccc(C(N)=O)nc2)c(C)c1-c1ccc(C#N)c(C(F)(F)F)c1` [Example 311, 5-({4-[4-cyano-3-(trifluoromethyl)phenyl]-3,5-dimethyl-1H-pyrazol-1-yl}methyl)pyridine-2-carboxamide], the inhibition at 1 µM in assay [1] stood at 29%; in assay [2] it was 29%; on mutant AR (W741C), 17%; in assay [3], 85.8%.
Turning to `Cc1nn(Cc2ccc(S(N)(=O)=O)cc2)c(C)c1-c1ccc(C#N)c(Cl)c1` [Example 322, 4-{[4-(3-chloro-4-cyanophenyl)-3,5-dimethyl-1H-pyrazol-1-yl]methyl}benzenesulfonamide], the inhibition at 1 µM in assay [1] amounted to 84%; in assay [2], 83%; on mutant AR (W741C) it was 24%; in assay [3], 108%.
The like results for `Cc1nn(Cc2ccc(C(N)=O)cc2)c(C)c1-c1ccc(C#N)c(Cl)c1F` [Example 337, 4-{[4-(3-chloro-4-cyano-2-fluorophenyl)-3,5-dimethyl-1H-pyrazol-1-yl]methyl}benzamide] were, in that order, 71%, 72%, 36% and 104%.
